We go through 10 compounds from patent publication US8618151B2, “Inhibitors of HCV NS5A” (Presidio Pharmaceuticals, Inc., priority 2008, dated 2013).

Bounds are passed on as bounds.

In this test the test system is HCV genotype 1b replicon. The test is described as follows: HCV replicon assay (1b_Huh-Luc/Neo-ET cell line, luciferase readout). As to conditions: Hepatitis C virus, Huh-7, 72 h, read-out: Inhibition of HCV genotype 1b. The class given is cell-based. In a few lines: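 1b_Huh-Luc/Neo-ET Huh 7 cells carrying a bicistronic genotype 1b replicon; compounds added in triplicate the day after plating, 72 h incubation, then Bright-Glo luciferase read-out. Signal expressed as % of control; EC50 from curve fit, repeated several times.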
(Replicon systems follow genome replication, usually without infectious particles.)
For the compound `COC(=O)N[C@H](C(=O)N1CCC[C@H]1c1ncc(-c2ccc(N3Cc4cc(-c5cnc([C@@H]6CCCN6C(=O)[C@@H](NC(=O)OC)C(C)C)[nH]5)ccc4C3=O)cc2)[nH]1)C(C)C` [compound 290], the EC50 was < 1 nM.

`COC(=O)N[C@H](C(=O)N1CCC[C@H]1c1nc(C2CNc3cc(-c4ccc(-c5cnc([C@@H]6CCCN6C(=O)[C@H](NC(=O)OC6CCOCC6)c6ccccc6)[nH]5)cc4)ccc3C2)c[nH]1)C(C)C` (stereo partly shown) [compound 291]: the EC50 was < 1 nM. As to `COC(=O)N[C@H](C(=O)N1CCC[C@H]1c1ncc(-c2ccc3cc(-c4ccc5c(c4)CCc4nc([C@@H]6CCCN6C(=O)[C@@H](NC(=O)OC)C(C)C)[nH]c4-5)ncc3c2)[nH]1)C(C)C` [compound 292], the EC50 was < 1 nM. With `COC(=O)N[C@H](C(=O)N1CCC[C@H]1c1nc2c([nH]1)-c1ccc(-c3cc4ccc(-c5cnc([C@@H]6CCCN6C(=O)[C@@H](NC(=O)OC)C6CCOCC6)[nH]5)cc4cn3)cc1CC2)C(C)C` [compound 293], the EC50 is < 1 nM. On to `COC(=O)N[C@H](C(=O)N1CCC[C@H]1c1nc2c([nH]1)-c1ccc(-c3cc4ccc(-c5cnc([C@@H]6CCCN6C(=O)[C@H](NC(=O)OC)c6ccccc6)[nH]5)cc4cn3)cc1CC2)C(C)C` [compound 294], for which the EC50 is < 1 nM. Consider `COC(=O)N[C@H](C(=O)N1CCC[C@H]1c1nc2c([nH]1)-c1ccc(-c3cc4ccc(-c5cnc([C@@H]6CCCN6C(=O)[C@H](NC(=O)OC6CCOCC6)c6ccccc6)[nH]5)cc4cn3)cc1CC2)C(C)C` [compound 295], for which the EC50 is < 1 nM.

As to `COC(=O)N[C@H](C(=O)N1CCC[C@H]1c1ncc(-c2ccc3nc(-c4ccc5c(ccc6nc([C@@H]7CCCN7C(=O)[C@@H](NC(=O)OC)C(C)C)[nH]c65)c4)ccc3c2)[nH]1)C(C)C` [compound 296], the EC50 is < 1 nM. For `COC(=O)N[C@H](C(=O)N1CCC[C@H]1c1nc2ccc3cc(-c4ccc5cc(-c6cnc([C@@H]7CCCN7C(=O)[C@@H](NC(=O)OC)C7CCOCC7)[nH]6)ccc5n4)ccc3c2[nH]1)C(C)C` [compound 297], the EC50 is < 1 nM. Turning to `COC(=O)N[C@H](C(=O)N1CCC[C@H]1c1nc2ccc3cc(-c4ccc5cc(-c6cnc([C@@H]7CCCN7C(=O)[C@H](NC(=O)OC)c7ccccc7)[nH]6)ccc5n4)ccc3c2[nH]1)C(C)C` [compound 298], the EC50 is < 1 nM. Regarding `COC(=O)N[C@H](C(=O)N1CCC[C@H]1c1nc2ccc3cc(-c4ccc5cc(-c6cnc([C@@H]7CCCN7C(=O)[C@H](NC(=O)OC7CCOCC7)c7ccccc7)[nH]6)ccc5n4)ccc3c2[nH]1)C(C)C` [compound 299], the EC50 was < 1 nM.
